From PMC3853024, “Aromatase inhibitor treatment with an intravaginal device and its effect on pre-ovulatory ovarian follicles in a bovine model” (Reproductive Biology and Endocrinology : RB&E, 2013)

System: plasma estradiol
Assay: Plasma estradiol concentration (radioimmunoassay) in treated heifers
Type: in vivo, cattle (Hereford-cross beef heifers)
Protocol: Heifers in which a CL was detected were given two luteolytic doses of PGF (12 h apart) and monitored by ultrasonography for ovulation. Five to eight days later, the two largest ovarian follicles were ablated by transvaginal ultrasound-guided follicular aspiration to synchronize follicular wave emergence which was expected to occur 1 to 1.5 days later. Prostaglandin (500 μg cloprostenol, Estrumate, Schering-Plough Animal Health, Pointe-Claire, QC, Canada) was given intramuscularly at 60 and 72 h after follicular ablation to induce regression of the CL and shift from a non-ovulatory to an ovulatory follicular wave. […] Devices were inserted on Day 1 and were kept in place until Day 7 or until ovulation was detected, which ever occurred first. […]
Plasma concentrations of estradiol were determined using a commercial radioimmunoassay kit (Double Antibody Estradiol; Diagnostic Products Corp., Los Angeles, CA, USA). […]
Statistical analyses were done using the Statistical Analysis System software package (SAS Learning Edition 9.1, 2006; SAS Institute Inc., Cary, NC, USA). Time-series data (hormone concentrations, follicle and CL diameter profiles) were analyzed by repeated measures using the PROC MIXED procedure. […]

Structure (SMILES): N#Cc1ccc(C(c2ccc(C#N)cc2)n2cncn2)cc1 [Letrozole]
- Delay of preovulatory rise in estradiol versus control (n=15): 24 h
- Plasma estradiol concentrations versus control (n=15, P=0.04): lower
